Ends that are not written are not given here. spacer = not defined here
Tests used:
human MSCs [1] = assay: Capture of MSCs from a mixed cell population with peptide on CELLECTION magnetic beads; assay type: cell-based; conditions: starting mixture 38% IM9, 56% U937, 4% MSC; FIG. 17C
From the text: In this experiment, biotinylated cell binding peptide, SEQ ID NO: 16, was attached to CELLECTION magnetic beads. The CELLECTION beads have streptavidin coupled to a magnetic particle through a DNA linker. Three different cell types, human MSCs, IM-9, and U937 cells were differentially labeled with […] dye and mixed in a ratio such that the MSCs represented ˜4% of the starting cell mixture (the percentage of each cell type in the starting mixture was 38% IM9, 56% U937, and 4% MSC). The cell binding peptide, SEQ ID NO: 16, was biotinylated as described herein at Example 2, as was a general cell binding peptide for use as a control peptide in the experiment. Magnetic particles with no peptide attached, as well as magnetic beads having attached either the cell binding peptide, SEQ ID NO: 16, or the control peptide were tested for their ability to capture human MSCs. The starting cell mixture was incubated with magnetic beads having either attached peptide or no peptide, the beads were washed, and the captured cells were released from the beads by DNase treatment. The cells were measured by flow cytometry histograms shown in 17A-17C. The magnetic beads without peptide captured little or no cells (FIG. 17B). The magnetic beads with attached cell binding peptide SEQ ID NO: 16 captured a cell population that was 96% MSCs (FIG. 17C).

[2] = tested on: human MSCs from bone marrow aspirate; assay: Capture of cultured MSCs with biotinylated peptide on […] streptavidin microbeads in LS columns; assay type: cell-based; conditions: 160,000 cultured human MSCs, peptide 20 μM on streptavidin microbeads, FIG. 16
Description: In this experiment the ability of the biotinylated cell binding peptide SEQ ID NO: 4 to capture human MSCs from a homogeneous cultured cell population was examined. The cell binding peptide SEQ ID NO: 4 was biotinylated as described herein at Example 2. The cell binding peptide SEQ ID NO: 4, and a non-binding control peptide, were added to separate 300 μl volumes of […] BIOTEC Streptavidin microbeads at a concentration of 20 μM. These beads are made from iron filings, coated with a dextran coating which is functionalized with streptavidin moieties. Peptide was incubated with beads for 45 min on ice. The 300 μl of peptide coated microbeads were added to pre-equilibrated LS columns outside of the magnetic field to evenly distribute the magnetic beads throughout the columns. Columns were then placed into a magnetic field, and excess peptide was washed away with buffer while retaining the peptide coated microbeads. Cultured and expanded human MSCs from bone marrow aspirate (160,000 cells; LONZA) were added to each LS column and allowed to pass through by gravity flow. Flowthrough was collected and cycled through the columns 5 times, after which the columns were washed with 5 ml buffer. […] The collected flowthrough with 5 ml wash and eluted cells were spun down, resuspended in a smaller volume, and counted by hemacytometer (see FIG. 16). […]

human ASCs = assay: Biotinylated peptide cell binding specificity by flow cytometry (Neutravidin-PE); conditions: 30 min at 4° C., FIG. 15
From the text: (§1) The synthetic biotinylated cell binding peptide SEQ ID NO: 4 was examined for its ability to specifically bind MSCs compared to a number of other cells types including adipose-derived mesenchymal stem cells (ASCs), dermal fibroblasts, rodent MSCs, red blood cells, monocytes, lymphocytes and granulocytes. The cell binding peptide was biotinylated as described herein at Example 2. Cultured cells of each type were either purchased (ASCs and dermal fibroblasts) or isolated from rodent bone marrow (rodent MSCs) or human blood. Cells were first harvested and resuspended at 10^6/mL in PBS+2% fetal bovine serum (FBS). An aliquot of cells (50 μL) was incubated in 50 μL of peptide solution (25 μM in PBS+FBS) for 30 min at 4° C. Cells were then washed twice in PBS+FBS with 300×g centrifugation for 5 min between washes. Fluorescently-tagged neutravidin (Neutravidin-PE from INVITROGEN) was then added to the cells to label biotinylated peptide bound to cells. Neutravidin-PE was diluted 1:250 from stock and applied at 50 μL to cells. Cells were then washed in PBS+FBS, and acquired on a BD […]. Peptide reactivity was then measured as percent positivity relative to Neutravidin-PE staining without the addition of biotinylated peptide.

human MSCs [3] = assay: as above; conditions: 30 min at 4° C., FIG. 15
From the text: as §1

dermal fibroblasts = assay: as above; design: species or system human; conditions: 30 min at 4° C., FIG. 15
From the text: as §1

[4] = tested on: MSCs directly from bone marrow aspirate; assay: Capture of MSCs from bone marrow aspirate, colony forming units after 14 days; assay type: cell-based, human; conditions: streptavidin-coated MILTENYI beads, FIG. 18
Description: (§2) This experiment was performed to examine the ability of cell binding peptide SEQ ID NO: 4 to capture MSCs directly from bone marrow aspirate in comparison to two separate antibodies against the CD105 I antigen (CD105) and the MSCA-1 stem cell antigen (MSCA-1). This experiment employed biotinylated peptides with streptavidin-coated […] magnetic beads. The peptides were biotinylated as described herein at Example 2. […] For the antibody capture experiment, magnetic beads having covalently attached CD105 or MSCA-1 antibody were employed ([…]). Prior to incubation with the peptides and antibodies, bone marrow aspirate (BMA) was mixed with 5 volumes of 10 mM ammonium chloride for 1-2 min at room temperature to lyse red blood cells. The lysate was centrifuged for 5 min at 300×g and the supernatant discarded. The cell pellet was washed with wash buffer (PBS+0.5% bovine serum albumin+0.5 mM EDTA) and cells were resuspended in […] peptide at a concentration of 10^8 per mL. For peptide binding studies, the cell suspension was incubated with the biotinylated peptides for 30 min at 4° C. to allow for binding. After incubation, cells were spun down at 300×g for 5 min, and peptide solution was aspirated. Cells were then rinsed twice with wash buffer, with centrifugation between washes. […] Colony forming units (CFUs) were counted after 14 days in culture. […]

[5] = tested on: MSCs captured from bone marrow; assay: Osteoblast differentiation of captured MSCs (Alizarin Red S); assay type: cell-based, human; conditions: 14 days in osteoblast differentiation medium, FIG. 20 C/D
Description: Osteoblast differentiation. For osteogenic differentiation, the MSCs present in the […] column eluants (see Example 6) were cultured for 14 days in complete medium supplemented with 0.1 μM dexamethasone, 50 μM ascorbate-2-phosphate, 10 mM β-glycerophosphate, and 1% antibiotic/antimycotic. Calcium mineralization was measured by Alizarin Red S (SIGMA) staining to reveal mineralizing osteoblasts (see FIG. 20, panel C (undifferentiated MSCs) and panel D (osteoblast differentiated MSCs)).

[6] = tested on: MSCs captured from bone marrow; assay: Adipocyte differentiation of captured MSCs (Oil Red O); assay type: cell-based, human; conditions: 21 days in adipocyte differentiation medium, FIG. 20 A/B
Description: Adipocyte differentiation. After capture of MSCs using cell binding peptide SEQ ID NO: 4 with the […] magnetic system according to Example 6, the ability of the captured cells to differentiate into an adipocyte lineage was examined. The MSCs present in the […] column eluants (see Example 6) were cultured for 21 days in complete medium (DMEM, 10% FBS, 100 units/mL penicillin, 100 μg/mL streptomycin, and 2 mM glutamine) supplemented with 0.5 mM isobutyl methylxanthine, 1 μM dexamethasone, 10 μM insulin, 200 μM indomethacin, and 1% antibiotic/antimycotic. Following the 21 day incubation, the cells were fixed in 4% paraformaldehyde in PBS for 15 minutes, washed in 60% isopropanol for 5 minutes, and stained with Oil Red O (SIGMA) for 10 minutes to determine the extent of adipogenesis (see FIG. 20, panels A (undifferentiated MSCs) and panel B (adipocyte differentiated MSCs)). The image of the adipose differentiated cells (FIG. 20, panel B) contains a larger magnification inset where the lipid vacuoles are clearly visible.

[7] = tested on: MSCs captured from bone marrow; assay: Chondrocyte differentiation of captured MSCs (aggrecan immunostaining); assay type: cell-based, human; conditions: 24 days in CHONDRODIFF medium, FIG. 21
Description: Chondrocyte differentiation. To examine chondrocyte differentiation, the MSCs present in the […] column eluants (see Example 6) were pelleted by centrifugation at 150×g for 5 minutes. Cells were washed once with 1 ml MACS NH CHONDRODIFF Medium without disturbing the pellet. Cells were spun again and 1 mL CHONDRODIFF Medium was added to each pellet. Every third day, medium was aspirated and replaced with fresh pre-warmed medium. After 24 days in culture, cells exposed to CHONDRODIFF medium formed cartilage plugs or nodules, whereas control cells formed only loose or small nodules. Cells were washed once with PBS and fixed in neutral buffered formalin overnight. Sections were embedded in paraffin and sectioned at 5 microns. Sections were examined by hemotoxylin and eosin staining (data not shown). Sections were further examined by immunostaining for aggrecan, a major structural component of cartilage. In FIG. 21, sections from the periphery (panels A and B) or center (panels C and D) were incubated with an antibody against aggrecan (ABCAM) (panels B and D) or with secondary detection reagents only as a control (panels A and C), then counterstained with DAPI to reveal cell nuclei. […] Control images of captured cells grown in the absence of differentiation medium could not be taken due to the small and loose nature of nodules.

[8] = tested on: MSCs captured from bone marrow aspirate; assay: Immunoreactivity of captured cells for surface antigens; assay type: cell-based, human; conditions: CD29(+), CD44(+), CD73(+), CD166(+), CD90(+), CD45(−), CD34(−)
Description: as §2

Sequence	MSCs in captured cell population (human MSCs [1]) [%]	capture of the MSCs [2]	binding to human ASCs (percent positivity relative to Neutravidin-PE staining) (human ASCs)	binding to human MSCs (percent positivity relative to Neutravidin-PE staining) (human MSCs [3])	binding to dermal fibroblasts (percent positivity relative to Neutravidin-PE staining) (dermal fibroblasts)	MSC capture (CFUs after 14 days in culture) [4]	osteogenic differentiation of captured MSCs [5]	adipogenesis of captured MSCs [6]	aggrecan in nodules formed from captured MSCs [7]	immunoreactivity of isolated cells compared with CD105 isolated cells [8]
SSFRFGPLGTWNYPSTDNAE (also: biotin, position not given here, on magnetic beads) [SEQ ID NO: 16, tested biotinylated on CELLECTION magnetic beads]	96									
SSFWDVCQGDGTCYGGGSR (SSFWDVCQGDGTCYGGGSR-{spacer-biotin}; cysteine pairing not given here; reading uncertain; also: C-terminal spacer not given here) [SEQ ID NO: 4, tested biotinylated with a C-terminal spacer]		approximately 70%	high binding	high binding	high binding	as efficient as capture by either of the CD105 or MSCA-1 antibodies	osteogenic pathway remains intact	adipogenesis pathway remains intact	aggrecan could be detected	no changes were observed
